{
  "source": "patent US20070116781A1",
  "about": "“Hydrogen Cyanamide Pesticide Formulations” (priority 2005, published 2007)",
  "key": {"[1]": {"tested_on": "Dorylaimida nematodes", "assay": "Effect on beneficial nematodes in covered pots of silt loam", "type": "in vivo", "description": "In this study, the soil was naturally infested with four species of nematodes, two of which were deleterious and two beneficial, and observations were made of both the nematode survival and the growth of the soybean plants.\nStock solutions of hydrogen cyanamide at 1.0% by weight and propionic acid at 5.0% by weight, both in water, were prepared, the hydrogen cyanamide from a phosphate-buffered 50% aqueous solution. Planting pots measuring 10 cm in diameter, each containing 1 kg of soil, were used. The soil was silt loam from a cotton field, pH 6.2, CEC<10 meq/100 g soil, organic matter<1.0%. The treatment chemicals were combined in various dilutions such that 100 mL of the combined dilutions contained the desired amount of each chemical for each test. The combined dilutions were then applied to the soil surface in each pot, at 100 mL of combined dilution per pot. The dilutions were selected to achieve target application rates expressed in milligrams of the treatment chemical per kilogram of soil, with 1 milligram of treatment chemical per kilogram of soil being approximately equal to 2 kilograms of the chemical per hectare of soil or 2 pounds of the chemical per acre of soil.\nImmediately after the treatment chemicals were applied, each pot was covered by a thick (1.5 mil), clear, low-density polyethylene bag. After twelve days, the bags were removed and soil samples were taken from each pot for nematological analysis by the salad bowl technique of Rodriguez-Kabana, R., and M. H. Pope, Nematropica, 11: 175-186 (1981). The results of these analyses are listed in Table I as pre-plant test results. The results for the two deleterious nematodes are also shown as plots of the number of nematodes vs. the hydrogen cyanamide application rate in FIGS. 1 and 2.\nAfter the polyethylene bags were removed, each pot was planted with Hutcheson soybean seeds at 5 seeds per pot, and the seeds were allowed to germinate and the plants to grow for 45 days. The resulting plants were then removed from the pots, the root systems were washed, and the number of plants in each pot was determined. The weights of both fresh shoots and roots were also determined as well as the shoot height and the relative health of the root system, using a subjective index. Soil samples were also collected, and the soil and roots were incubated to determine nematode populations. Treatments were arranged in randomized complete block design with seven replications per treatment, and statistical evaluation of the data was performed with analyses of variance (ANOVA) and standard regression procedures. Fischer's Least Significant Difference at p 0.05 was calculated when appropriate. The results of these tests are listed as final test results in Tables II, III, and IV, with nematode populations in the soil listed in Table II, the nematode populations in the root systems in Table III, and the plant and root parameters of the soybean shoots in Table IV."}, "[2]": {"tested_on": "combined weed species", "assay": "Herbicidal activity, cyanamide and citric acid, pre-emergence, covered pots", "type": "in vivo", "description": "(§1) The weeds used in these tests were grown from a standard weed seed pack of common annual and perennial weeds representing an extreme weed situation. The weeds included crabgrass (Digitaria sanguinalis), yellow nutsedge (Cyperus esculentus), […] (Ipomoea spp.), pigweed (Amaranthus spp.), and other annual weeds. Observations of the effects on the weed population as a whole were made, and individual observations were made for crabgrass, yellow nutsedge, sicklepod, morningglory, and pigweed. Stock solutions of hydrogen cyanamide at 1.25% by weight and citric acid at 5.0% by weight, both in water, were prepared, the hydrogen cyanamide from a phosphate-buffered 50% aqueous solution. […] Data analyses were performed in the same manner as Example 1. The results expressed in weeds per pot are listed in Table XIV for all weeds, Table XV for crabgrass, Table XVI for yellow nutsedge, Table XVII for sicklepod, Table XVIII for morningglory, and Table XIX for pigweed, all at various application rates for hydrogen cyanamide, with and without citric acid."}, "[3]": {"tested_on": "crabgrass", "assay": "Herbicidal activity, cyanamide and citric acid, pre-emergence, covered pots", "type": "in vivo, Digitaria sanguinalis", "description": "as §1"}, "[4]": {"tested_on": "sicklepod", "assay": "Herbicidal activity, cyanamide and citric acid, pre-emergence, covered pots", "type": "in vivo, Senna obtusifolia", "description": "as §1"}, "[5]": {"details": "9 d after treatment, cyanamide 50 mg/kg soil"}, "[6]": {"details": "9 d after treatment, cyanamide 100 mg/kg soil"}, "[7]": {"details": "9 d after treatment, cyanamide 150 mg/kg soil"}, "[8]": {"details": "9 d after treatment, cyanamide 200 mg/kg soil"}, "[9]": {"details": "9 d after treatment, cyanamide 250 mg/kg soil"}, "[10]": {"details": "13 d after treatment, cyanamide 50 mg/kg soil"}, "[11]": {"details": "13 d after treatment, cyanamide 100 mg/kg soil"}, "[12]": {"details": "13 d after treatment, cyanamide 150 mg/kg soil"}, "[13]": {"details": "13 d after treatment, cyanamide 200 mg/kg soil"}, "[14]": {"details": "13 d after treatment, cyanamide 250 mg/kg soil"}, "[15]": {"details": "19 d after treatment, cyanamide 50 mg/kg soil"}, "[16]": {"details": "19 d after treatment, cyanamide 100 mg/kg soil"}, "[17]": {"details": "19 d after treatment, cyanamide 150 mg/kg soil"}, "[18]": {"details": "19 d after treatment, cyanamide 200 mg/kg soil"}, "[19]": {"details": "19 d after treatment, cyanamide 250 mg/kg soil"}, "[20]": {"details": "26 d after treatment, cyanamide 50 mg/kg soil"}, "[21]": {"details": "26 d after treatment, cyanamide 100 mg/kg soil"}, "[22]": {"details": "26 d after treatment, cyanamide 150 mg/kg soil"}, "[23]": {"details": "26 d after treatment, cyanamide 200 mg/kg soil"}, "[24]": {"details": "26 d after treatment, cyanamide 250 mg/kg soil"}},
  "data": [
    {"smiles": "N#CN", "note": "[Cyanamide, hydrogen cyanamide]", "values": [
      {"measurement": "Surviving Nematodes: Dorylaimida", "setting": "[1]; 12 d after treatment, pre-plant, cyanamide 20 mg/kg soil", "result": "24 per 100 mL of soil"},
      {"measurement": "Surviving Nematodes: Dorylaimida", "setting": "[1]; 12 d after treatment, pre-plant, cyanamide 40 mg/kg soil", "result": "20 per 100 mL of soil"},
      {"measurement": "Surviving Nematodes: Dorylaimida", "setting": "[1]; 12 d after treatment, pre-plant, cyanamide 60 mg/kg soil", "result": "5 per 100 mL of soil"},
      {"measurement": "Surviving Nematodes: Dorylaimida", "setting": "[1]; 12 d after treatment, pre-plant, cyanamide 80 mg/kg soil", "result": "6 per 100 mL of soil"},
      {"measurement": "Surviving Nematodes: Dorylaimida", "setting": "[1]; 12 d after treatment, pre-plant, cyanamide 120 mg/kg soil", "result": "0 per 100 mL of soil"},
      {"measurement": "Surviving Nematodes: Dorylaimida", "setting": "[1]; 57 d after treatment, 45 d after planting, cyanamide 20 mg/kg soil", "result": "9 per 100 mL of soil"},
      {"measurement": "Surviving Nematodes: Dorylaimida", "setting": "[1]; 57 d after treatment, 45 d after planting, cyanamide 40 mg/kg soil", "result": "8 per 100 mL of soil"},
      {"measurement": "Surviving Nematodes: Dorylaimida", "setting": "[1]; 57 d after treatment, 45 d after planting, cyanamide 60 mg/kg soil", "result": "4 per 100 mL of soil"},
      {"measurement": "Surviving Nematodes: Dorylaimida", "setting": "[1]; 57 d after treatment, 45 d after planting, cyanamide 80 mg/kg soil", "result": "5 per 100 mL of soil"},
      {"measurement": "Surviving Nematodes: Dorylaimida", "setting": "[1]; 57 d after treatment, 45 d after planting, cyanamide 120 mg/kg soil", "result": "0 per 100 mL of soil"},
      {"measurement": "Weeds Per Pot (combined weed species)", "setting": "[2]; [5]", "result": 15.0},
      {"measurement": "Weeds Per Pot (combined weed species)", "setting": "[2]; [6]", "result": 1.6},
      {"measurement": "Weeds Per Pot (combined weed species)", "setting": "[2]; [7]", "result": 0.2},
      {"measurement": "Weeds Per Pot (combined weed species)", "setting": "[2]; [8]", "result": 0},
      {"measurement": "Weeds Per Pot (combined weed species)", "setting": "[2]; [9]", "result": 0},
      {"measurement": "Weeds Per Pot (combined weed species)", "setting": "[2]; [10]", "result": 14.4},
      {"measurement": "Weeds Per Pot (combined weed species)", "setting": "[2]; [11]", "result": 14.0},
      {"measurement": "Weeds Per Pot (combined weed species)", "setting": "[2]; [12]", "result": 0.9},
      {"measurement": "Weeds Per Pot (combined weed species)", "setting": "[2]; [13]", "result": 0},
      {"measurement": "Weeds Per Pot (combined weed species)", "setting": "[2]; [14]", "result": 0},
      {"measurement": "Weeds Per Pot (combined weed species)", "setting": "[2]; [15]", "result": 11.2},
      {"measurement": "Weeds Per Pot (combined weed species)", "setting": "[2]; [16]", "result": 4.8},
      {"measurement": "Weeds Per Pot (combined weed species)", "setting": "[2]; [17]", "result": 1.6},
      {"measurement": "Weeds Per Pot (combined weed species)", "setting": "[2]; [18]", "result": 0.3},
      {"measurement": "Weeds Per Pot (combined weed species)", "setting": "[2]; [19]", "result": 0},
      {"measurement": "Weeds Per Pot (combined weed species)", "setting": "[2]; [20]", "result": 21.5},
      {"measurement": "Weeds Per Pot (combined weed species)", "setting": "[2]; [21]", "result": 10.0},
      {"measurement": "Weeds Per Pot (combined weed species)", "setting": "[2]; [22]", "result": 3.0},
      {"measurement": "Weeds Per Pot (combined weed species)", "setting": "[2]; [23]", "result": 0.8},
      {"measurement": "Weeds Per Pot (combined weed species)", "setting": "[2]; [24]", "result": 0.8},
      {"measurement": "Weeds Per Pot: Crabgrass", "setting": "[3]; [5]", "result": 4.3},
      {"measurement": "Weeds Per Pot: Crabgrass", "setting": "[3]; [6]", "result": 1.6},
      {"measurement": "Weeds Per Pot: Crabgrass", "setting": "[3]; [7]", "result": 0},
      {"measurement": "Weeds Per Pot: Crabgrass", "setting": "[3]; [8]", "result": 0},
      {"measurement": "Weeds Per Pot: Crabgrass", "setting": "[3]; [9]", "result": 0},
      {"measurement": "Weeds Per Pot: Crabgrass", "setting": "[3]; [10]", "result": 7.4},
      {"measurement": "Weeds Per Pot: Crabgrass", "setting": "[3]; [11]", "result": 2.9},
      {"measurement": "Weeds Per Pot: Crabgrass", "setting": "[3]; [12]", "result": 0.4},
      {"measurement": "Weeds Per Pot: Crabgrass", "setting": "[3]; [13]", "result": 0},
      {"measurement": "Weeds Per Pot: Crabgrass", "setting": "[3]; [14]", "result": 0},
      {"measurement": "Weeds Per Pot: Crabgrass", "setting": "[3]; [15]", "result": 7.3},
      {"measurement": "Weeds Per Pot: Crabgrass", "setting": "[3]; [16]", "result": 3.4},
      {"measurement": "Weeds Per Pot: Crabgrass", "setting": "[3]; [17]", "result": 0.6},
      {"measurement": "Weeds Per Pot: Crabgrass", "setting": "[3]; [18]", "result": 0},
      {"measurement": "Weeds Per Pot: Crabgrass", "setting": "[3]; [19]", "result": 0},
      {"measurement": "Weeds Per Pot: Crabgrass", "setting": "[3]; [20]", "result": 9.6},
      {"measurement": "Weeds Per Pot: Crabgrass", "setting": "[3]; [21]", "result": 5.6},
      {"measurement": "Weeds Per Pot: Crabgrass", "setting": "[3]; [22]", "result": 1.4},
      {"measurement": "Weeds Per Pot: Crabgrass", "setting": "[3]; [23]", "result": 0},
      {"measurement": "Weeds Per Pot: Crabgrass", "setting": "[3]; [24]", "result": 0},
      {"measurement": "Weeds Per Pot: Sicklepod", "setting": "[4]; [10]", "result": 1.3},
      {"measurement": "Weeds Per Pot: Sicklepod", "setting": "[4]; [11]", "result": 0.9},
      {"measurement": "Weeds Per Pot: Sicklepod", "setting": "[4]; [12]", "result": 0.3},
      {"measurement": "Weeds Per Pot: Sicklepod", "setting": "[4]; [13]", "result": 0},
      {"measurement": "Weeds Per Pot: Sicklepod", "setting": "[4]; [14]", "result": 0},
      {"measurement": "Weeds Per Pot: Sicklepod", "setting": "[4]; [15]", "result": 1.7},
      {"measurement": "Weeds Per Pot: Sicklepod", "setting": "[4]; [16]", "result": 0.7},
      {"measurement": "Weeds Per Pot: Sicklepod", "setting": "[4]; [17]", "result": 0.4},
      {"measurement": "Weeds Per Pot: Sicklepod", "setting": "[4]; [18]", "result": 0.3},
      {"measurement": "Weeds Per Pot: Sicklepod", "setting": "[4]; [19]", "result": 0},
      {"measurement": "Weeds Per Pot: Sicklepod", "setting": "[4]; [20]", "result": 1.6},
      {"measurement": "Weeds Per Pot: Sicklepod", "setting": "[4]; [21]", "result": 0.7},
      {"measurement": "Weeds Per Pot: Sicklepod", "setting": "[4]; [22]", "result": 0.4},
      {"measurement": "Weeds Per Pot: Sicklepod", "setting": "[4]; [23]", "result": 0.3},
      {"measurement": "Weeds Per Pot: Sicklepod", "setting": "[4]; [24]", "result": 0.1}
    ]}
  ]
}
